From patent publication US4975430A, “CNQX and its analogs as therapeutics for degenerative neural diseases” (The State of Oregon Acting by and Through The State Board …, priority 1989, dated 1990)

What was measured:
NMDA receptor [1] = test: NMDA receptor-mediated currents, whole cell patch recordings in dissociated hippocampal neurons; format: cell-based, rat; settings: for effect on NMDA receptor-mediated current: 30 uM NMDA
[2] = target: glycine binding site (NMDA receptor); test: 3-H-glycine binding to frontal cortex membranes; settings: 4 nM 3-H-glycine, washed guinea pig frontal cortex membranes, 30 min on ice; read-out: IC50 for displacement of glycine
non-NMDA receptors = settings: U.S. Pat. No. 4,812,458; cited from earlier work
[3] = test system: non-NMDA receptor for kainate; test: kainate-mediated current in dissociated hippocampal neurons (control experiment); format: cell-based, rat; settings: 10 uM CNQX, 20 uM kainate
NMDA receptor [4] = settings: cited from earlier work; for effect on responses produced by NMDA: literature reports (Honore et al., Blake et al., Fletcher, Dryer et al.)

| IC50 [2] | effect on kainate-mediated current ([3]; 1 uM glycine) | effect of glycine on suppression of kainate-mediated current ([3]; glycine 1000 uM) | SMILES | effect on NMDA receptor-mediated current (NMDA receptor [1]; 10 uM CNQX, 1 uM glycine (FIG. 2A)) | effect on NMDA receptor-mediated current (NMDA receptor [1]; 10 uM CNQX, 100 uM glycine) | effect on NMDA receptor-mediated current (NMDA receptor [1]; 30 uM CNQX, 200 uM glycine, reversed by 500 uM NMDA (FIG. 2B)) | dependence of CNQX effects on membrane potential (NMDA receptor [1]; currents recorded at +40 mv and -40 mV) | glycine potentiation of NMDA receptor-mediated currents (NMDA receptor [1]; varying glycine, 10 uM or 30 uM CNQX (FIG. 1)) | effect on excitation of spinal cord neurons induced by stimulation of non-NMDA receptors (non-NMDA receptors) | effect on responses produced by NMDA (NMDA receptor [4]) | effect on NMDA concentration response curve (NMDA receptor [4]; Birch et al. 1988) | effect on maximal response to NMDA (NMDA receptor [4]; high antagonist concentrations, Birch et al. 1988) |
| --- | --- | --- | --- | --- | --- | --- | --- | --- | --- | --- | --- | --- |
| 5.7 µM | complete suppression | no effect on this suppression | N#Cc1cc2[nH]c(=O)c(=O)[nH]c2cc1[N+](=O)[O-] [CNQX, 6-cyano-7-nitroquinoxaline 2,3-dione] | suppresses the response | substantially no effect | relatively low suppression | not dependent on membrane potential | complete potentiation is not achieved | depress the excitation | little or no effect |  |  |
|  |  |  | O=c1[nH]c2cc([N+](=O)[O-])c([N+](=O)[O-])cc2[nH]c1=O [DNQX, 6,7-dinitro-quinoxaline-2,3-dione] |  |  |  |  |  | depress the excitation | little or no effect | shift to the right | decrease in maximal response |
